In patent EP0046707B1, “Derivatives of 4-aminobutyric acid and the medicines especially active on the central nervous system containing them” (priority 1980, dated 1982):
Read-outs that look alike come from different tables or passages of the source.

Key:
[1] = Acute toxicity (mortality over 24 h); conditions: in vivo, po, mouse, observed 24 h
Protocol: Les produits à étudier sont administrés par voie orale aux doses de 500 et 1 000 mg/kg à des lots de souris. On observe les souris pendant 24 h et note la mortalité.
Les résultats exprimés en pourcentage de mortalité figurent dans le tableau XI ci-après.

[2] = tested on: GABA (acide amino-4 butyrique); test: Effect on whole-brain GABA level; format: in vivo, souris
Protocol: Le 40039 a été administré 30 min avant le sacrifice chez la souris. Le taux de GABA a été évalué sur le cerveau entier (lots de 6 animaux) (voir tableau IX ci-après).

rats = test: Electroencephalographic study (sleep/wake analysis per 24 h); format: in vivo; conditions: rat; for EV / SL / SP / ST: per 24 h
Protocol: Pour mieux comprendre l'activité hypnotique des produits selon l'invention, une étude électroencéphalographique a été effectuée sur l'un deux, à savoir CM 40039.
[…] Après une période d'habituation de 10 jours (période éclairée de 8 h à 20 h et période obscure de 20 h à 8 h), les animaux sont enregistrés pendant 5 jours avec le solvant (gomme arabique à 10 %), puis enregistrés pendant 4 jours pendant lesquels ils reçoivent le produit à 9 h chaque matin. Après cette administration chronique, les animaux sont enregistrés les 5 jours suivants (période de contrôle).
Les animaux sont enregistrés 24 h sur 24. L'étude statistique porte sur des tranches de 24 h. On fait une analyse globale sur les trois rats en cumulant les 15 journées témoins, les 12 journées de traitement, les 15 journées de contrôle. Dans chaque tranche horaire de 24 h, on évalue le temps d'éveil (EV), de sommeil lent (SL), de sommeil paradoxal (SP), de sommeil total (ST), ainsi que le rapport (en %) sommeil paradoxal/sommeil total (SP/ST) (voir tableau VII ci-après).

souris [3] = test: Actography (locomotor activity, two perpendicular light beams); format: in vivo; conditions: mouse, 500 mg/kg oral
Protocol: La mesure de l'actographie est effectuée chez la souris 45 min. après l'administration du produit. On opère sur des lots de 12 animaux, chacun d'eux étant isolé pendant 10 min. avant la mesure. Le comptage des scores est effectué par coupure de deux faisceaux lumineux perpendiculaires.
Dans le tableau IV ci-après sont rassemblés les résultats obtenus avec divers produits de l'invention administrés à la dose de 500 mg/kg par voie orale. Les résultats sont exprimés en pourcentage de variation des scores obtenus par rapport à des animaux témoins non traités.
On peut constater que les produits se répartissent en deux groupes : • ceux provoquant de l'hypomotilité tels que 40217, 40039, 40271, 40272, 40319; dans le cas où les animaux traités présentent une perte du réflexe de retournement, ce qui traduit l'effet de narcose propre du produit, on a noté PRR; • ceux provoquant de l'hypermotilité, tels que 40142, 40398, 40397, 40404, 40253, 40355, 40209; pour préciser les résultats obtenus, l'étude pour deux produits a été reprise en effet-dose suivant le même protocole. • Les résultats obtenus figurent dans le tableau V ci-après.

[4] = tested on: acide homovanillique (HVA); test: Effect on central dopaminergic activity (homovanillic acid accumulation in whole brain); format: in vivo, souris; conditions: mouse whole brain, 500 mg/kg p.os
Protocol: L'effet des produits sur l'activité dopaminergique centrale a été étudié par la mesure de l'accumulation de l'acide homovanillique sur une période de 24 h après l'administration des produits chez la souris.
Le taux d'acide homovanillique (HVA) est évalué dans le cerveau entier, les animaux reçoivent une injection de probenecid (200 mg/kg i.p.) 1 h 30 min avant le sacrifice (lot de 10 animaux).

souris [5] = test: Anticonvulsant effect against bicuculline-induced tonic seizures; format: in vivo; conditions: 1 h; mouse, bicuculline 1 mg/kg i.v. 60 min after oral dosing; read-out: Dose efficace médiane de protection des crises toniques (DE 50) Bicuculline
Protocol: (§1) L'effet anticonvulsivant a été déterminé vis-à-vis des crises convulsives provoquées par l'électrochoc ou par la bicuculline.
La bicuculline est administrée à la souris par voie intraveineuse à raison de 1 mg/kg, 60 min après le produit à étudier donné per os. On note l'effet protecteur obtenu vis-à-vis des crises toniques.
(§2) En opérant sur divers lots d'animaux avec des doses différentes du produit à étudier, on peut déterminer la dose efficace médiane (DE 50).
(§3) Les résultats sont rassemblés dans le tableau VIII ci-après et montrent les propriétés anticonvulsivan- tes nettes des produits étudiés.

souris [6] = test: Potentiation of pentobarbital narcosis (loss of righting reflex); format: in vivo; conditions: po; mouse, p. os 1 h before pentobarbital 20 mg/kg i.p.; unit not given for DE 50; read-out: dose (p. os) provoquant 50 % d'induction de narcose (DE 50)
Protocol: Les produits à étudier ont été administrés per os chez la souris à la dose de 500 mg/kg, 1 h avant le pentobarbital injecté par voie intrapéritonéale à raison de 20 mg/kg.
On détermine le pourcentage des animaux ayant perdu le réflexe de retournement. Les résultats sont exprimés en pourcentage ou, dans quelques cas, en dose efficace 50 (DE 50) ou dose provoquant la narcose chez 50 % des animaux traités.
Les résultats figurent dans le tableau VI ci-après.

souris [7] = test: Anticonvulsant effect against electroshock seizures; format: in vivo; conditions: 1 h; mouse, electroshock 12.5 V for 0.5 s, 60 min after oral dosing; read-out: Dose efficace médiane de protection des crises toniques (DE 50) Electrochoc
Protocol: as §1
L'électrochoc (12,5 V pendant 0,5 s) est effectué chez la souris 60 min après l'administration du produit par voie orale.
as §2, §3

[8] = post-treatment 'Contrôle' period

Q: With `CCCCN(CCCC)C(=O)CCCNC(=O)CCC` [40 039, Butyl-10 dioxo-4,9 diaza-5,10 tétradécane] as the compound, how does the mortality at 24 h ([1]; 500 mg/kg p. os, read-out: p. cent de mortalité à 500 mg/kg p. os) read?
A: The mortality at 24 h was 0%.

Q: And the mortality at 24 h ([1]; 1000 mg/kg p. os, read-out: p. cent de mortalité à 1000 mg/kg p. os)?
A: Its mortality at 24 h is 100%.

Q: And the “Taux de GABA en µg/g cerveau” value ([2]; mouse whole brain, 500 mg/kg p. os, 30 min before sacrifice)?
A: The value was 321 ± 12 µg/g cerveau.

Q: What about the “Taux de GABA p.cent/témoins” value ([2]; mouse whole brain, 500 mg/kg p. os, change vs controls) of the same compound?
A: The value was 14,6 p.cent.

Q: And the “taux de GABA dans le cerveau total” value ([2]; mouse, result in words)?
A: The value was “rapide augmentation”.

Q: What about the EV (rats; 'Contrôle' = 5 days after end of chronic treatment) of the same compound?
A: Its EV is 40,3 ± 3,6.

Q: And the SP/ST (rats; [8])?
A: Its SP/ST is 13,5 ± 1,8%.

Q: And the SL (rats; [8])?
A: The SL was 51 ± 3.

Q: What about the SP (rats; [8]) of the same compound?
A: The SP was 8,6 ± 1,7.

Q: And the ST (rats; [8])?
A: The ST was 59,6 ± 3,9.

Q: And the EV (rats; treatment period (12 days pooled, 3 rats), 325 mg/kg as in table head, wake time)?
A: The EV was 40,6 ± 3.

Q: And the SP (rats; treatment period, paradoxical sleep)?
A: The SP was 8,1 ± 1,4.

Q: And the SL (rats; treatment period, slow-wave sleep)?
A: Its SL is 51,5 ± 2.

Q: And the ST (rats; treatment period, total sleep)?
A: The ST was 59,5 ± 2,6.

Q: What about the SP/ST (rats; treatment period, ratio paradoxical/total sleep) of the same compound?
A: Its SP/ST is 13,2 ± 1,9%.

Q: What about the “Mesure de l'actographie (p. cent scores/témoins)” value (souris [3]; 45 min after dosing, change of scores vs untreated controls, PRR = loss of righting reflex) of the same compound?
A: Its value is “PRR”.

Q: What about the “hypomotilité / hypermotilité” value (souris [3]; grouping in words) of the same compound?
A: The value was “hypomotilité”.

Q: What about the “Taux de HVA en” value ([4]; 2 h) of the same compound?
A: Its value is 798 ± 34 ng/g.

Q: What about the “Taux de HVA en” value ([4]; 4 h) of the same compound?
A: The value was 894 ± 37 ng/g.

Q: And the “Taux de HVA en” value ([4]; 6 h)?
A: The value was 659 ± 29 ng/g.

Q: What about the “Taux de HVA (variation vs 0)” value ([4]; 6 h, change vs time 0) of the same compound?
A: The value was 0%.

Q: What about the “Taux de HVA en” value ([4]; 24 h) of the same compound?
A: The value was 441 ± 19 ng/g.

Q: And the “Taux de HVA en” value ([4]; time 0 (baseline))?
A: The value was 658 ± 40 ng/g.

Q: And the ED50 (souris [5])?
A: Its ED50 is 300 mg/kg.

Q: What about the ED50 (souris [6]) of the same compound?
A: The ED50 was 200 mg/kg.

Q: What about the ED50 (souris [7]) of the same compound?
A: Its ED50 is 250 mg/kg.
